These results are taken from patent publication US9889135B2, “Companion diagnostic for CDK4 inhibitors” (Memorial Sloan-Kettering Cancer Center, priority 2013, dated 2018).

SMILES strings stand for the structures. A value given as a limit tells only on which side of the number the result lay.

Experiment [1] concerns MDM2 in WD/DDLS tumor biopsies. The experiment is described as follows: MDM2 in pre- and post-treatment patient biopsies by immunoblot. It counts as in vivo, human. How it is done:
FIG. 7. […] GAPDH serves as a loading control.
Antibodies against CDK4 (3F121), MDM2 (N-20 and SMP14), total RB (IF8), Cyclin A (H432), p16 (C20), p53 (DO-1 and Bp53-12), tubulin (C20) and FLAG (M2) were obtained from Santa Cruz Biotechnology, phospho-Rb 780 (#9307) from Cell Signalling, and ARF (3642) from Abeam, HAUSP (A300-033A) from Bethyl Laboratories. Treated cells were lysed with buffer composed of 50 mM Tris-HCl, pH7.4, 250 mM NaCl, 5 mM EDTA, 0.5% NP40, 2 mM PMSF, and supplemented with protease inhibitors. Eighty micrograms of protein were resolved by SDS-PAGE and transferred to PVDF membranes. Membranes were incubated overnight with antibodies (1:1000). […] Pre-treatment biopsies were collected within two weeks of the first dose and post-treatment biopsies collected after at last three weeks of treatment. […] Tumor response was assessed by reference radiologist by CT scan every six weeks for 36 weeks, and every 12 weeks thereafter.
Extracts were prepared in 50 mM Tris-HCl, pH7.4, 150 mM NaCl, 1 mM EDTA, 1% NP40, 0.25% sodium deoxycholate and supplemented with mini-protease inhibitor cocktail (Roche). Tumor response was assessed by reference radiologist by CT scan every six weeks for 36 weeks, and every 12 weeks thereafter.
On the technique in general: Immunoblotting shows a protein as a band on a membrane.

In experiment [2] the test system is MDM2 in glioma (U87MG, U251, SNB19, DBTRG-05MG) and breast cancer (MDA453, T47D, ZR-75-1, and MCF7) cells. The experiment can be described thus: MDM2 levels in glioma and breast cancer cell lines. It counts as cell-based. The following applies: eight glioma and breast cancer cell lines. An excerpt:
FIG. 19A-C. Senescence associated with the downregulation of MDM2 is p53 and INK4 independent. […] This experiment was repeated three times with similar results in both LS8817 and LS141. […] The p53 mutational status of these cell lines (WT, wild type; R273H and L194F, missense mutations; if-DEL, in-frame deletion of 30 nucleotides at amino acid 368) were obtained from the p53 mutation database and the RIKEN bioresource databank and is consistent with the detection of p21 by immunoblot. (C) SNB19 cells, a p53 mutant and INK4A deficient cell, was transduced with the mutants described in panel A and their effect on senescence determined.
Antibodies against CDK4 (3F121), MDM2 (SMP-14), total RB (IFS), Cyclin A (H432), p16 (C20), and p53 (Bp53-12), were obtained from Santa Cruz Biotechnology, phospho-Rb 780 (#9307) from Cell Signalling, and ARF (3642) from Abeam. Treated cells were lysed with buffer composed of 50 mM Tris-HCl, pH7.4, 250 mM NaCl, 5 mM EDTA, 0.5% NP40, 2 mM PMSF, and supplemented with protease inhibitors. Eighty micrograms of protein were resolved by SDS-PAGE and transferred to PVDF membranes. Membranes were incubated overnight with antibodies (1:1000).

The next experiment concerns LS8817 and LS0082 cells. The experiment can be described thus: BrdU incorporation after release into drug-free medium. The following applies: after seven days of drug treatment. It counts as cell-based, human. An excerpt: (§1) Mean percentage standard deviation). (*p<0.05). (A) Senescence-associated β-galactosidase and (B) HP1γ staining for senescence associated heterochromatic foci (SAHF) formation was quantitated for three or more independent experiments for each cell line. (*p<0.05). Representative phase contrast micrographs of cells stained for SA-β-gal or immunofluorescence staining for HP1γ in two of the cell lines before (ctrl) and after (PD) drug treatment are shown in the insets of FIGS. 2A and 2B, respectively. (C) BrdU incorporation. Cell lines were treated with PD0332991 for seven days, and released into drug-free medium containing BrdU for the number of days indicated. Error bars represent the standard deviation of the mean calculated from three independent trials.

For experiment [3], the system named is LS8107 and LS7785-1 cells. The experiment is described as above. It counts as cell-based, human. The following applies: after seven days of drug treatment.
From the text: as §1

Experiment [4] deals with seven RB-positive patient derived WD/DDLS cell lines. The experiment can be described thus: BrdU incorporation in liposarcoma cell lines. It counts as cell-based, human. The following applies: asynchronously growing cells, 48 hours. The protocol:
FIG. 1A-C. […] Mean percentage of BrdU incorporation or annexin V+/7-AAD− cells was calculated from three or more independent experiments. Error bars represent standard deviation (*p<0.05).
Cell lines were developed from WD/DDLS tumors resected from surgical patients after obtaining informed consent. LS8817 and LS0082 have previously been described using the nomenclature DDLS8817 and WD0082. DNA was extracted from cell lines using standard protocols (QIAGEN DNEasy) and lineage confirmed by copy number array to confirm amplification of segment 12q13-15 (Agilent 244K according to manufacturer's specifications). Analysis of comparative genomic hybridization data was performed using a custom pipeline, which conducts the standard circular binary segmentation from the R/bioconductor DNA copy library and processes all samples with the RAE algorithm (47). […]
shRNA were delivered in the pLKO.1 vector (Sigma) and infected cells selected using puromycin (1 μg/ml); infection with a virus carrying a scramble control ([…]) was used as a control in all experiments utilizing shRNA. […] G0 content was determined by staining with propidium iodine and FACS analyses (49).
Cells were stained with BrdU (20 μM for two hours) or annexin V as previously described (22, 48). […] was determined by staining with propidium iodine and FACS analyses (49).
In general terms: Dividing cells build labelled thymidine or BrdU into new DNA.

For experiment [5] the test system is unchanged. The experiment is described as follows: cell number by Coulter Counter. It counts as cell-based, human. The following applies: asynchronously growing cells, counted daily for 4 days.

As for `CC(=O)c1c(C)c2cnc(Nc3ccc(N4CCNCC4)cn3)nc2n(C2CCCC2)c1=O` [PD0332991], the “MDM2 levels in post- versus pre-treatment biopsies” value in experiment [1] (patients 1, 4, 7, and 8) was “reduced”; in experiment [1] (patients 2, 3, and 9) it was “unaffected”. In experiment [2], the MDM2 levels entry is “decreased”. Also, the “return to the cell cycle after the drug was removed” value in the experiment on LS8817 and LS0082 cells is reported as “did not”. In experiment [3], the “time to return to the cell cycle after the drug was removed” value is at most 48 h. In addition, the “incorporation of bromodeoxyuridine (BrdU)” value in experiment [4] was “significant reduction”. The growth arrest entry in experiment [5] is given as “growth arrest within a single cell cycle”.
